In paper PMC9582434, “Ryanodine receptor-active non-dioxin-like polychlorinated biphenyls cause neurobehavioral deficits in larval zebrafish” (Frontiers in Toxicology, 2022):

Test system: larval zebrafish
Assay: Teratological and mortality assessment, static exposure 6 hpf to 5 dpf
Assay type: in vivo
Details: 30 µM; by 3 dpf; data not shown
Experimental: At 4 hpf, embryos were treated with 50 µl of 41 mg/ml protease from Streptomyces griseus (P5147, Sigma-Aldrich, St. Louis, MO, United States) in 25 ml of FW for a maximum of 6 min to remove the chorion ([Truong et al., 2011]). At 5 hpf, embryos were placed in individual wells of 96-well plates filled with 100 µl of EM. At 6 hpf, embryos were exposed to a 2× concentration of the selected PCB congeners or controls that were diluted in 100 μl EM to produce a 1× concentration in a total of 200 µl solution. […] After exposure, plates were covered with Parafilm M (Bemis NA, Neenah, WI, United States) to reduce evaporation and placed in an incubator at 28.5°C with 14 h light (∼300 lux)/10 h dark cycles. Final DMSO concentrations were 0.2% (vol/vol) for all exposures. Fish were statically exposed until 5 dpf.
Exposed fish were examined daily for any gross morphological malformations and mortality using an Olympus Stereo Microscope Model SZ61 (Olympus, Japan) up to ×4.5 magnification. […] Teratological endpoints that were evaluated include yolk sac edema, pericardial edema, somite formation, deformities of the body axis, notochord, craniofacial structures, or caudal fin. Malformations were scored in a binary manner of either present or not present. Fish that were scored as neither malformed nor dead were deemed viable. […]

Clc1ccc(Cl)c(-c2c(Cl)ccc(Cl)c2Cl)c1 [PCB 95, 2,2',3,5',6-pentachlorobiphenyl]
loss of viability: ~100%
